Measurements from US9097673B2, “Processes and kits for determining multi-drug resistance of cells” (ENZO LIFE SCIENCES, INC., priority 2010, dated 2015).

Legend:
CHO K1 cell line [1] = assay: Dye uptake flow cytometry MDR assay; format: cell-based, hamster; conditions: CHO K1, dye uptake;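 further: flow cytometry of dye-loaded cells, Kolmogorov-Smirnov D value (0 to 1.0) comparing fluorescence with versus without inhibitor, made negative when the uninhibited control was brighter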
Experimental: (§10) Concentrations of the modulators used in the experiments were non-toxic to the cells (based upon standard 3-(4,5-Dimethylthiazol-2-Yl)-2,5-Diphenyltetrazolium Bromide (MTT) testing, data not shown). Fluo-8™ was used in all experiments at 5 μM, and Rhod-4™—at 4 μM final concentrations.

CHO K1 cell line [2] = assay: Dye efflux flow cytometry MDR assay; format: cell-based, hamster; parameters: key to D-value, Verapamil / D-value, Novobiocin: KS D value, 0 to 1; negative if control brighter than sample; conditions: CHO K1, dye efflux
Excerpt: (§1) Kolmogorov-Smirnov statistics measures the difference between two distribution functions and generates a D value ranging between 0 and 1.0, with higher values indicating a greater difference between the distribution functions. The D value generated by the KS statistics was modified by ascribing a negative value if the fluorescence of a negative control (no inhibitor) was brighter than the fluorescence of the sample with inhibitor. The method was one of those recommended by the First International MDR1 Methods Detection Workshop (St. Jude Children's Research Hospital, Memphis, Tenn.).
(§2) Cells were grown in tissue culture dishes and on the day of assay they were trypsinized and washed twice with ice-cold PBS. Post-wash, the cells were re-suspended in cold phenol red indicator-free medium at a density of 1×10^6/ml. For each detection set, eighteen tubes (6 tubes without inhibitor and 3 tubes for each inhibitor tested, in triplicates) each containing 2.5-5×10^5/cells were prepared. Cells were centrifuged at 200×g for 5 min, and after discarding supernatant, re-suspended at 1×10^6/ml in ice-cold indicator-free medium containing Fluo-8™ AM or Rhod-4™ AM probes. Additionally, an aliquot of non-stained cells was prepared for background fluorescence measurements. Cells were incubated with the probe(s) on ice for 60 min, than centrifuged at 200×g for 5 min. After discarding the supernatant, cells were either washed twice with PBS or simply were spun down to remove the excess of the probe and resuspended at 5×10^5 cells/sample in 0.5 ml of following solutions:
(§3) 1. warm (37° C.) indicator-free medium containing vehicle only (3 tubes)
(§4) 2. warm (37° C.) indicator-free medium containing inhibitor (3 tubes for each inhibitor tested)
(§5) 3. ice-cold indicator-free medium (3 tubes)
(§6) Tube sets 1 and 2 were immediately transferred to a water bath (37° C.) and incubated for 90 min. Tube set 3 was kept on ice. Post incubation, 4 ml of ice-cold indicator-free medium was added per tube, tubes were centrifuged at 200×g for 5 min, supernatant was discarded, and cell pellet was re-suspended in the cold indicator-free medium and centrifuged again. Finally, cells were re-suspended in 0.5 ml of cold indicator-free medium and maintained on ice until analysis. Alternatively, cells were analyzed without washing. Flow cytometry experiments were performed as described in Example 3.

A549 cell line [3] = assay: Dye uptake flow cytometry MDR assay; format: cell-based, human; conditions: A549, dye uptake
Experimental: as §10

A549 cell line [4] = assay: Dye efflux flow cytometry MDR assay; format: cell-based, human; parameters: key to D-value, Verapamil / D-value, Novobiocin: KS D value, 0 to 1; negative if control brighter than sample; conditions: A549, dye efflux
Excerpt: as §1, §2, §3, §4, §5, §6

HeLa cell line [5] = assay: Dye efflux flow cytometry MDR assay; format: cell-based, human; parameters: key to D-value, Verapamil / D-value, Novobiocin: KS D value, 0 to 1; negative if control brighter than sample
Excerpt: as §1, §2, §3, §4, §5, §6

HeLa cell line [6] = assay: Dye uptake flow cytometry MDR assay; format: cell-based, human; conditions: HeLa, dye uptake
Experimental: as §10

HCT-8 cells = assay: Dye uptake flow cytometry MDR assay; format: cell-based, human; parameters: key: Kolmogorov-Smirnov D statistic comparing fluorescence distributions; conditions: HCT-8, dye uptake
Experimental: (§7) Cells were grown on tissue culture dishes and on the day of assay were trypsinized and washed twice with warm (37° C.) phosphate-buffered saline (PBS). Post-wash, the cells were re-suspended in warm phenol red indicator-free medium at a density of 1×10^6/ml. For each detection set, sixteen tubes (5 samples in triplicates plus non-stained control for background fluorescence) in numbered tubes each containing 5×10^5/cells (0.5 ml) were prepared. […] After incubation for 5 min at 37° C., 0.25 ml of warm medium with Fluo-8™ AM probe (5 μM final concentration) or Rhod-4™ AM probe (2 μM final concentration) was added to each tube excluding non-stained control that receives plain medium and cells were incubated for 30 min at 37° C. and analyzed immediately by flow cytometry. In the second set of the tubes, the reaction was stopped by rapid centrifugation (1 min) at relatively low speed (200×g). After wash with ice-cold PBS and discarding the supernatant, cells were re-suspended in 0.5 ml of ice-cold medium and kept on ice until flow cytometry analysis. The third set of cells simply was spun down (1 min, 200×g) to remove the excess of the probe, resuspended in ice-cold medium and kept on ice until flow cytometry analysis.
(§8) Flow cytometry experiments were performed using a FACS Calibur benchtop flow cytometer (BD Biosciences) equipped with a blue (488 nm) laser, and the signals were registered in the FITC (530/30 filter), PE (585/42 filter) and PerCP (670 LP filter) channels. Fluo-8™ dye fluorescence was measured in the FL1 channel, and Rhod-4™ dye fluorescence—in the FL2 channel. Flow cytometry data were analyzed by comparison of median fluorescence or using Kolmogorov-Smirnov statistics [Young, J Histochem Cytochem 25:935-941 (1977)] or by calculating MAF values (MDR Activity Factor) using the following formula: MAF=100*((MFIinh−MFI0)/MFIinh), where MFIinh and MFI0 are mean fluorescence intensity values measured in the presence and absence of inhibitor [Hollo et al., Biochem Piophys Acta. 1191:384-388 (1994)].
(§9) Both human ileocecal colorectal carcinoma cell line HCT-8 (reported to over-express P-gp and, to a lesser extent, MRP [Hunter et al., Br J Cancer. 64:437-444 (1991); Collington et al., Biochem Pharmacol 44:417-424 (1992)] and hepatocellular carcinoma Hep G2 (reported to over-express MRP [Roelofsen et al., Gastroenterology 112:511-521 (1997), Cantz et al., Am J Physiol Gastrointest Liver Physiol. 278:G522-G531 (2000)] were obtained from ATCC. HCT-8 cells were routinely cultured in RPMI-1640 Medium with 2 mM L-glutamine, 10 mM HEPES, 1 mM sodium piruvate, 4.5 g/L glucose, 1.5 g/L sodium bicarbonate (ATCC), supplemented with 10% horse serum (ATCC) and 100 U/ml penicillin, 100 ug/ml streptomycin (Sigma-Aldrich, St. Louis, Mo.). Hep G2 cells were routinely cultured in Eagle's Minimum Essential Medium with low glucose (ATCC), supplemented with 10% heat inactivated fetal bovine serum (ATCC) and 100 U/ml penicillin, 100 ug/ml streptomycin (Sigma-Aldrich, St. Louis, Mo.). Cell cultures were maintained in a humidified incubator at 37° C., with 5% CO2 atmosphere. Stock solutions of the probes and inhibitors were prepared, as described in Examples 2 and 3. Cells were grown in tissue culture dishes and on the day of assay were treated according to a dye uptake protocol and analyzed by flow cytometry, as described in Example 3.

Hep G2 cells = assay: Dye uptake flow cytometry MDR assay; format: cell-based, human; parameters: key: Kolmogorov-Smirnov D statistic comparing fluorescence distributions; conditions: HepG2, dye uptake
Experimental: as §7, §8, §9

[7] = average of three representative experiments (Table 6)
[8] = representative experiment (Table 8)
[9] = kept on ice without inhibitor (Table 9)
[10] = representative experiment (Table 9)

Structure (SMILES): CC(=O)OCOC(=O)CN(CC(=O)OCOC(C)=O)Cc1cc2c(cc1OC(C)=O)Oc1cc(OC(C)=O)c(CN(CC(=O)OCOC(C)=O)CC(=O)OCOC(C)=O)cc1C21OC(=O)c2ccccc21 [Calcein AM]
- D-value, Fumitremorgan C (CHO K1 cell line [1]; [7]): 0.17
- D-value, Probenecid (CHO K1 cell line [1]; [7]): 0.77
- D-value, Verapamil (CHO K1 cell line [1]; [7]): 0.74
- D-value, Cyclosporine A (CHO K1 cell line [1]; [8]): 0.96
- D-value, Novobiocin (CHO K1 cell line [1]; [8]): 0.06
- D-value, Probenecid (CHO K1 cell line [1]; [8]): 0.70
- D-value, Verapamil (CHO K1 cell line [1]; [8]): 0.93
- D-value, 4° C. (CHO K1 cell line [2]; [9]): 0.65
- D-value, Cyclosporine A (CHO K1 cell line [2]; [10]): 0.31
- D-value, Novobiocin (CHO K1 cell line [2]; [10]): 0.13
- D-value, Probenecid (CHO K1 cell line [2]; [10]): 0.47
- D-value, Verapamil (CHO K1 cell line [2]; [10]): 0.26
- D-value, Fumitremorgan C (A549 cell line [3]; [7]): 0.04
- D-value, Probenecid (A549 cell line [3]; [7]): 0.36
- D-value, Verapamil (A549 cell line [3]; [7]): 0.17
- D-value, Cyclosporine A (A549 cell line [3]; [8]): 0.47
- D-value, Novobiocin (A549 cell line [3]; [8]): 0.03
- D-value, Probenecid (A549 cell line [3]; [8]): 0.27
- D-value, Verapamil (A549 cell line [3]; [8]): 0.15
- D-value, 4° C. (A549 cell line [4]; [9]): 0.50
- D-value, Cyclosporine A (A549 cell line [4]; [10]): 0.35
- D-value, Novobiocin (A549 cell line [4]; [10]): 0.15
- D-value, Probenecid (A549 cell line [4]; [10]): 0.40
- D-value, Verapamil (A549 cell line [4]; [10]): 0.03
- D-value, 4° C. (HeLa cell line [5]; [9]): 0.07
- D-value, Cyclosporine A (HeLa cell line [5]; [10]): 0.08
- D-value, Novobiocin (HeLa cell line [5]; [10]): 0.04
- D-value, Probenecid (HeLa cell line [5]; [10]): 0.62
- D-value, Verapamil (HeLa cell line [5]; [10]): 0.1
- D-value, Fumitremorgan C (HeLa cell line [6]; [7]): 0.03
- D-value, Probenecid (HeLa cell line [6]; [7]): 0.06
- D-value, Verapamil (HeLa cell line [6]; [7]): 0.17
- D-value, Cyclosporine A (HeLa cell line [6]; [8]): 0.14
- D-value, Novobiocin (HeLa cell line [6]; [8]): 0.09
- D-value, Probenecid (HeLa cell line [6]; [8]): 0.09
- D-value, Verapamil (HeLa cell line [6]; [8]): 0.13
- D-value, CyclosporinA (HCT-8 cells): 0.31
- D-value, MK-571 (HCT-8 cells): 0.16
- D-value, Novobiocin (HCT-8 cells): 0.44
- D-value, Verapamil (HCT-8 cells): 0.71
- D-value, CyclosporinA (Hep G2 cells): 0.29
- D-value, MK-571 (Hep G2 cells): 0.29
- D-value, Novobiocin (Hep G2 cells): 0.02
- D-value, Verapamil (Hep G2 cells): 0.13
